# Data taken from article PMC10064330, “Reversible Dual-Covalent Molecular Locking of the 14-3-3/ERRγ Protein–Protein Interaction as a Molecular Glue Drug Discovery Approach” (Journal of the American Chemical Society, 2023).
# Target: T1, 14-3-3γ/PIN1 complex (Homo sapiens, UniProt P61981)
# T1 construct: made in house; host or cells: E. coli NiCo21 (DE3)
# T1 sequence (P61981 1-247): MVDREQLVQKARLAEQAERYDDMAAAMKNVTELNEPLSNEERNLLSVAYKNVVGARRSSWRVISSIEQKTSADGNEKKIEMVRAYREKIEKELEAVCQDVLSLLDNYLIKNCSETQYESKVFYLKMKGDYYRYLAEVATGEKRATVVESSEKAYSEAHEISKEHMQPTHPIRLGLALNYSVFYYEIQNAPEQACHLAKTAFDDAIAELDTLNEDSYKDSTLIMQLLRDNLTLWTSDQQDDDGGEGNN
# Test: FA selectivity screen, PIN1 client peptide
# Assay type: binding
# Settings: 100 μM compound, PIN1 peptide (+1 Trp)
# Procedure: Drugging the hub protein 14-3-3 raises the challenge of selectivity, given that 14-3-3 binds several hundred phosphoprotein partners (Figure 4a).[54] We hypothesized that the interplay of chemical reactivity, the topology, and functionality of the composite binding pocket shaped by 14-3-3 and the interaction partner drives selective stabilization of the 14-3-3/ERRγ complex.[53] To validate selectivity, molecular locks 5 and 10 were tested against a panel of nine 14-3-3 client peptides in an FA assay, and the SF100 was determined for each 14-3-3 PPI (Figure 4b and Figures S18–S20). This client panel contained a diverse representation of 14-3-3 binding proteins, differing for example in size and hydrophobicity of the +1 amino acid. Importantly, clients PKR and RND3, each containing a +1 Cys, were included in the panel.
# Figure S20. KD and SF100 plot – selectivity screen. […]
# nine different client peptides in presence of DMSO (negative control) or 100 µM of compound 1, 5 or 10 (based on binding curves in Figure S19). […]
# A pPROEX HTb expression vector encoding the human 14-3-3 protein gamma (14-3-3γ) with a N-terminal his6-tag was transformed by heat shock into NiCo21 (DE3) competent cells. […] Finally, the protein was concentrated to ∼60 mg/mL, analyzed Q-Tof LC/MS, and aliquots were flash-frozen for storage at −80 °C. […]
compound,measurement,value
CN(C)CCSSCCN(C)C(=O)c1ccc(C=O)c(F)c1 [compound 5],off-target effect in client screen,minor off-target effects
